According to PubChem BioAssay (NCI):
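Cells were grown in 96-well plates and exposed to each compound for 48 hours at five concentrations; endpoints were interpolated linearly between bracketing concentrations, or set to the highest concentration if not reached. GI50 is the concentration that inhibits growth by half. TGI denotes the concentration required for complete inhibition of growth.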

Tests used:
Assay in all cases: NCI-60 cell line screen, 48 h; in the data active means GI50 below about 0.43 µM; inactive means the rest
[1] = system: COLO 205 colon
[2] = system: SF-295 CNS
[3] = system: HCT-116 colon
[4] = system: MDA-MB-231 breast
[5] = system: KM12 colon
[6] = system: 786-0 renal
[7] = system: MCF7 breast
[8] = system: LOX IMVI melanoma
[9] = system: ACHN renal
[10] = system: SF-539 CNS
[11] = system: HCC-2998 colon
[12] = system: M14 melanoma
[13] = system: TK-10 renal
[14] = system: HCT-15 colon
[15] = system: NCI-H226 lung
[16] = system: SW-620 colon
[17] = system: SNB-19 CNS
[18] = system: MDA-MB-435
[19] = system: UACC-257 melanoma
[20] = system: SK-MEL-2 melanoma
[21] = system: CCRF-CEM leukemia
[22] = system: BT-549 breast
[23] = system: NCI-H522 lung
[24] = system: A549 NSCLC
[25] = system: HT29 colon
[26] = system: NCI-H23 lung
[27] = system: SK-OV-3 ovarian
[28] = system: DU-145 prostate
[29] = system: OVCAR-4 ovarian
[30] = system: A498 renal
[31] = system: SK-MEL-28 melanoma
[32] = system: OVCAR-5 ovarian
[33] = system: OVCAR-8 ovarian
[34] = system: HOP-92 NSCLC
[35] = system: PC-3 prostate
[36] = system: MOLT-4 leukemia
[37] = system: T-47D breast
[38] = system: NCI-H460 lung
[39] = system: K-562 leukemia
[40] = system: SR leukemia
[41] = system: SN12C renal
[42] = system: CAKI-1 renal
[43] = system: UO-31 renal
[44] = system: SF-268 CNS
[45] = system: SK-MEL-5 melanoma
[46] = system: NCI/ADR-RES ovarian
[47] = system: UACC-62 melanoma
[48] = system: RPMI-8226 leukemia
[49] = system: IGROV1 ovarian
[50] = system: RXF 393 renal
[51] = system: HS 578T breast
[52] = system: HOP-62 NSCLC
[53] = system: HL-60(TB) leukemia
[54] = system: U251 CNS
[55] = system: EKVX NSCLC

COc1ccc(C(=O)c2c(N)c(C#N)cn2-c2cccc(OC)c2)cc1
4.49 µM: TGI [18]
7.51 µM: TGI [23]
6.1 µM: TGI [50]
inactive: GI50 [1] 3.01 µM | GI50 [2] 2.9 µM | GI50 [3] 3.5 µM | GI50 [4] 7.8 µM | GI50 [5] 4.17 µM | GI50 [6] 4.64 µM | GI50 [7] 3.07 µM | GI50 [8] 4.6 µM | GI50 [9] 6.52 µM | GI50 [10] 2.41 µM | GI50 [11] 4.98 µM | GI50 [12] 2.51 µM | GI50 [13] 6.14 µM | GI50 [14] 2.49 µM | GI50 [15] 4.5 µM | GI50 [16] 2.85 µM | GI50 [17] 3.92 µM | GI50 [18] 0.788 µM | GI50 [19] 9.48 µM | GI50 [20] 4.58 µM | GI50 [21] 2.68 µM | GI50 [22] 4.41 µM | GI50 [23] 1.99 µM | GI50 [24] 5.84 µM | GI50 [25] 2.64 µM | GI50 [26] 5.61 µM | GI50 [27] 4.09 µM | GI50 [28] 4.7 µM | GI50 [29] 18 µM | GI50 [30] 2.73 µM | GI50 [31] 49.8 µM | GI50 [32] 7.36 µM | GI50 [33] 5.3 µM | GI50 [34] 9.53 µM | GI50 [35] 3.75 µM | GI50 [36] 3.65 µM | GI50 [37] 3.72 µM | GI50 [38] 3.41 µM | GI50 [39] 0.707 µM | GI50 [40] 0.775 µM | GI50 [41] 5.64 µM | GI50 [42] 3.2 µM | GI50 [43] 5.42 µM | GI50 [44] 5.65 µM | GI50 [45] 3.19 µM | GI50 [46] 2.35 µM | GI50 [47] 3.22 µM | GI50 [48] 2.94 µM | GI50 [49] 5 µM | GI50 [50] 2.05 µM | GI50 [51] 2.42 µM | GI50 [52] 4.12 µM | GI50 [53] 2.01 µM | GI50 [54] 3.45 µM | GI50 [55] 4.68 µM
20.2 µM: TGI [25]
4.91 µM: TGI [53]
8.66 µM: TGI [51]
23.2 µM: TGI [45]
9.83 µM: TGI [21]
97.4 µM: TGI [11]
7.8 µM: TGI [30]
8.52 µM: TGI [10]
14.4 µM: TGI [40]
17.9 µM: TGI [36]
8.57 µM: TGI [39]
23 µM: TGI [1]
15.7 µM: TGI [48]
> 100 µM: TGI [2] | TGI [3] | TGI [4] | TGI [5] | TGI [6] | TGI [7] | TGI [8] | TGI [9] | TGI [12] | TGI [13] | TGI [14] | TGI [15] | TGI [16] | TGI [17] | TGI [19] | TGI [20] | TGI [22] | TGI [24] | TGI [26] | TGI [27] | TGI [28] | TGI [29] | TGI [31] | TGI [32] | TGI [33] | TGI [34] | TGI [35] | TGI [37] | TGI [38] | TGI [41] | TGI [42] | TGI [43] | TGI [44] | TGI [46] | TGI [47] | TGI [49] | TGI [52] | TGI [54] | TGI [55]
